Assay results from ChEMBL document CHEMBL1641495, “8-Aza-7,9-dideazaxanthine acyclic nucleoside phosphonate inhibitors of thymidine phosphorylase” (Bioorg Med Chem Lett, 2011).

What was measured:
[1] = biological target: T1, Thymidine phosphorylase (Escherichia coli K-12, UniProt P07650); test: Inhibition of [3H]methylthymidine binding to Escherichia coli thymidine phosphorylase after 20 mins by scintillation counting
[2] = biological target: Thymidine phosphorylase (Escherichia coli K-12) (UniProt P07650); test: Inhibition of [3H]methylthymidine binding to Escherichia coli thymidine phosphorylase at 20 uM after 20 mins by scintillation counting
[3] = biological target: Thymidine phosphorylase (Escherichia coli K-12) (UniProt P07650); test: Inhibition of [3H]methylthymidine binding to Escherichia coli thymidine phosphorylase at 100 uM after 20 mins by scintillation counting
[4] = biological target: T1, Thymidine phosphorylase; test: Inhibition of [3H]methylthymidine binding to Escherichia coli thymidine phosphorylase after 10 mins by scintillation counting

T1 sequence (P07650 whole entry): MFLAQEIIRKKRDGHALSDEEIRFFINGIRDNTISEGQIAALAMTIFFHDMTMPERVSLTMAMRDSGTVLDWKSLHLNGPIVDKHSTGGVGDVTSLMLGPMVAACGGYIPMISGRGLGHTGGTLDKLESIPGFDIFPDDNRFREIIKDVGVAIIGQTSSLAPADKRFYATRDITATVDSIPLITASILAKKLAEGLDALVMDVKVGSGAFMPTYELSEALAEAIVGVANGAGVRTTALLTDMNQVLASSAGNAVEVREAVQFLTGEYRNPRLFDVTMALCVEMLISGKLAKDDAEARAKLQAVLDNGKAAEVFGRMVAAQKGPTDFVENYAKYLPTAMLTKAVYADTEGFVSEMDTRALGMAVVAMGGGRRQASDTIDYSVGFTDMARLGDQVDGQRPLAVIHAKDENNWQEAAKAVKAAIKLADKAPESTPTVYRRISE
Thymidine phosphorylase (Escherichia coli K-12), sequence (P07650 whole entry, looked up): as the sequence (P07650 whole entry) above

IC50 [1]	inhibition [2]	inhibition [3]	IC50 [4]	SMILES
12 µM	–	–	–	O=c1[nH]c(=O)c2cn(CCCCCCCCP(=O)(O)O)cc2[nH]1
–	48%	83%	11.4 µM	O=c1[nH]c(=O)n(CCCCCCCCP(=O)(O)O)c2[nH]ccc12
3.5 µM	–	–	–	O=c1[nH]c(=O)c2cn(CCCCCCCCn3cc4[nH]c(=O)[nH]c(=O)c4c3)cc2[nH]1
6.8 µM	–	–	–	O=c1[nH]c(=O)n(CCCCCCCCP(=O)(O)O)c2c[nH]cc12
